Reference: patent US20250059182A1, “SOS1 INHIBITORS” (Mirati Therapeutics, Inc., priority 2021, published 2025)
Counter-ions that a name gives are not always drawn. Like-named read-outs stand apart in the source and are kept apart here.

Tests used:
pERK in MKN1 cells = assay: pERK inhibition, In-Cell Western (LI-COR Odyssey), MKN1 cells; format: cell-based; conditions: Homo sapiens
How it was run: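 MKN1 cells were exposed for about 0.5–1 h at 37 °C to nine 3-fold dilutions starting at 10 µM. Cells were then fixed in formaldehyde, permeabilised with methanol, and immunostained for pERK and GAPDH with near-infrared secondary antibodies. GAPDH-normalised pERK signal relative to vehicle gave % inhibition, from which IC50 was fitted.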

[1] = molecular target: T1, recombinant human SOS1 polypeptide (amino acids 560-1049) (Homo sapiens, UniProt Q07889); assay: HTRF displacement assay: inhibition of labeled tracer binding to SOS1; conditions: Table A1, Morrison equation for competitive binding
T1 construct: corresponding to amino acids 560-1049, expressed in E. Coli; made in house; host or cells: E. coli
T1 sequence (Q07889 560-1049): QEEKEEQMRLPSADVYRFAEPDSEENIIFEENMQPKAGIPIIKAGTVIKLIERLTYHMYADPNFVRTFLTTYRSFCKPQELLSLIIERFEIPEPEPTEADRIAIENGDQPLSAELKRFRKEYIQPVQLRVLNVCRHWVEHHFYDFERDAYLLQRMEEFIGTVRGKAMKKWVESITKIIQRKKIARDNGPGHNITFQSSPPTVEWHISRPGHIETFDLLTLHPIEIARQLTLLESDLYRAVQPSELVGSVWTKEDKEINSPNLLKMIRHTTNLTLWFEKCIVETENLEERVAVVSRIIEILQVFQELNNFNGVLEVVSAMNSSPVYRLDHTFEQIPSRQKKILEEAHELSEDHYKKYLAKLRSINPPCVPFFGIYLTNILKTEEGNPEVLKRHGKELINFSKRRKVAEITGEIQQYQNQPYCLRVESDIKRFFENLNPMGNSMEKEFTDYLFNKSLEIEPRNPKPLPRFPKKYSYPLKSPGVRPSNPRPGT
Method: The ability of a compound of Formula (I) to bind to SOS1 was measured using a HTRF displacement assay. […] After a 1-hour incubation at room temperature, the HTRF signal was measured using Clairostar plate reader (BMG Labtech) according to the manufacturer's instructions. Excitation filter EX-TR was used, and emission 1 was detected at 650-610 nm and emission 2 detected at 620-610 nm. The HTRF ratio was calculated using the formula: [emission 1/emission 2]*10000.
Background signals were calculated from well with a 10 μM inhibitor, known to inhibit 100% at that concentration. The background subtracted signals were converted to % binding relative to DMSO controls. Data were analyzed using XLFIT software (IDBS) using a Morrison equation for competitive binding and Ki's were generated compound of Formula (I).

[2] = MKN-1, read-out: IC50 (nM), pERK inhibition
[3] = MKN-1, Table B1, MKN1 or H358 cells (table does not say which), 0.5-1 hour incubation, read-out: IC50 (nM), pERK inhibition

Structure (SMILES) | IC50 (pERK in MKN1 cells; [2]) [nM] | Ki [1] [nM] | IC50 (pERK in MKN1 cells; [3]) [nM]
Cc1nnc(N[C@H](C)c2cccc(C(F)F)c2F)c2cc(N3CCC34CN(CCCF)C4)ncc12 [Example P-226, (R)-N-(1-(3-(difluoromethyl)-2-fluorophenyl)ethyl)-7-(6-(3-fluoropropyl)-1,6-diazaspiro[3.3]heptan-1-yl)-4-methylpyrido[3,4-d]pyridazin-1-amine formic acid salt] | 62.3 | 0.288 | 
Cc1nnc(N[C@H](C)c2cccc(C(F)F)c2F)c2cc(N3CCN(CCCF)CC3)ncc12 [Example P-227, (R)-N-(1-(3-(difluoromethyl)-2-fluorophenyl)ethyl)-7-(4-(3-fluoropropyl)piperazin-1-yl)-4-methylpyrido[3,4-d]pyridazin-1-amine] |  | 0.396 | 223
Cc1c(C#N)cccc1[C@@H](C)Nc1nnc(C)c2cnc(N3CCN(CCCF)CC3)cc12 [Example P-229, (R)-3-(1-((7-(4-(3-fluoropropyl)piperazin-1-yl)-4-methylpyrido[3,4-d]pyridazin-1-yl)amino)ethyl)-2-methylbenzonitrile] |  | 0.671 | 59.3
Cc1c(C#N)cccc1[C@@H](C)Nc1nnc(C)c2cc(F)c(N3CCC34COC4)cc12 [Example P-230, (R)-3-(1-((6-fluoro-4-methyl-7-(6-oxa-1-azaspiro[3.3]heptan-1-yl)phthalazin-1-yl)amino)ethyl)-2-methylbenzonitrile] |  | 2.51 | 26
Cc1c(C#N)cccc1[C@@H](C)Nc1nnc(C)c2cnc(N3CCC34COC4)cc12 [Example P-231, (R)-2-methyl-3-(1-((4-methyl-7-(6-oxa-1-azaspiro[3.3]heptan-1-yl)pyrido[3,4-d]pyridazin-1-yl)amino)ethyl)benzonitrile formic acid salt] | 4290 | 3.34 | 
Cc1nnc(N[C@H](C)c2cccc(C(F)F)c2F)c2cc(N3CCC34COC4)c(F)cc12 [Example P-232, (R)-N-(1-(3-(difluoromethyl)-2-fluorophenyl)ethyl)-6-fluoro-4-methyl-7-(6-oxa-1-azaspiro[3.3]heptan-1-yl)phthalazin-1-amine] |  | 1.18 | 7130
Cc1nnc(N[C@H](C)c2cccc(C(F)F)c2F)c2cc(N3CCC34COC4)ncc12 [Example P-233, (R)-N-(1-(3-(difluoromethyl)-2-fluorophenyl)ethyl)-4-methyl-7-(6-oxa-1-azaspiro[3.3]heptan-1-yl)pyrido[3,4-d]pyridazin-1-amine] |  | 2.75 | 18.8
Cc1nnc(N[C@H](C)c2cccc(C(F)F)c2F)c2cc(N3CCC34CN(C)C4)c(F)cc12 [Example P-234, (R)-N-(1-(3-(difluoromethyl)-2-fluorophenyl)ethyl)-6-fluoro-4-methyl-7-(6-methyl-1,6-diazaspiro[3.3]heptan-1-yl)phthalazin-1-amine] |  | 0.416 | 50.2
Cc1c(C#N)cccc1[C@@H](C)Nc1nnc(C)c2ccc(N3CCC34CN(C)C4)cc12 [Example P-235, (R)-2-methyl-3-(1-((4-methyl-7-(6-methyl-1,6-diazaspiro[3.3]heptan-1-yl)phthalazin-1-yl)amino)ethyl)benzonitrile formic acid salt] | 95.8 | 0.618 | 
Cc1nnc(N[C@H](C)c2cccc(C(F)F)c2F)c2cc(N3CCC34CN(C)C4)ccc12 [Example P-236, (R)-N-(1-(3-(difluoromethyl)-2-fluorophenyl)ethyl)-4-methyl-7-(6-methyl-1,6-diazaspiro[3.3]heptan-1-yl)phthalazin-1-amine] |  | 0.596 | 42.1
Cc1nnc(N[C@H](C)c2cccc(C(F)F)c2F)c2cc(N3CCC34CNC4)ncc12 [Example P-237, (R)-N-(1-(3-(difluoromethyl)-2-fluorophenyl)ethyl)-4-methyl-7-(1,6-diazaspiro[3.3]heptan-1-yl)pyrido[3,4-d]pyridazin-1-amine] |  | 0.515 | 182
Cc1nnc(N[C@H](C)c2cccc(C(F)F)c2F)c2cc(N3CCC34CN(C)C4)ncc12 [Example P-238, (R)-N-(1-(3-(difluoromethyl)-2-fluorophenyl)ethyl)-4-methyl-7-(6-methyl-1,6-diazaspiro[3.3]heptan-1-yl)pyrido[3,4-d]pyridazin-1-amine] |  | 0.4 | 17.7
Cc1nnc(N[C@H](C)c2cccc(C(F)F)c2F)c2cc(-c3ccc(=O)n(C)c3)ncc12 [Example P-239, (R)-5-(1-((1-(3-(difluoromethyl)-2-fluorophenyl)ethyl)amino)-4-methylpyrido[3,4-d]pyridazin-7-yl)-1-methylpyridin-2(1H)-one] |  | 15.1 | 606
